# Results from patent publication US20220401483A1, “COMBINATION OF A T CELL THERAPY AND (S)-3-[4-(4-MORPHOLIN-4-YLMETHYL-BENZYLOXY)-L-OXO-L,3-DIHYDRO-ISOINDOL-2-YL]-PIPERIDINE-2,6-DIONE” (Juno Therapeutics, Inc., priority 2019, published 2022).
# Legend:
# Assay type in all cases: cell-based, human
# Ikaros = test: Intracellular Ikaros expression in stimulated anti-CD19 CAR-expressing T cells (flow cytometry MFI)
# Procedure: (§1) T cell compositions containing anti-CD19 CAR-expressing T cells were generated from leukapheresis samples from three healthy human adult donors by a process including immunoaffinity-based selection of T cells (including CD4+ and CD8+ cells) from the samples, resulting in two compositions, enriched for CD8+ and CD4+ cells, respectively. The cells were incubated in the presence of (S)-3-[4-(4-morpholin-4-ylmethyl-benzyloxy)-1-oxo-1,3-dihydro-isoindol-2-yl]-piperidine-2,6-dione (Compound A) or 3-(5-amino-2-methyl-4-oxo-4H-quinazolin-3-yl)-piperidine-2,6-dione (Compound B), and expression of the transcription factors Ikaros and Aiolos was assessed. Cells of the enriched CD4+ and CD8+ compositions were separately activated with anti-CD3/anti-CD28 beads and subjected to lentiviral transduction with a vector encoding an anti-CD19 CAR. The anti-CD19 CAR contained an anti-CD19 scFv derived from a murine antibody (variable region derived from FMC63), an immunoglobulin-derived spacer, a transmembrane domain derived from CD28, a costimulatory region derived from 4-1BB, and a CD3-zeta intracellular signaling domain. The expression construct in the viral vector further contained sequences encoding a truncated receptor, which served as a surrogate marker for CAR expression, which was separated from the CAR sequence by a T2A ribosome skip sequence. Transduced populations then were separately incubated in the presence of stimulating reagents for cell expansion. Expanded CD8+ and CD4+ cells were formulated and cryopreserved separately and stored. The cryopreserved CD4+ and CD8+ anti-CD19 CAR-expressing cells from each donor were thawed, and combined at approximately a 1:1 CAR+CD4+:CD8+ ratio prior to use. Approximately 2.5×10^5 cells of the generated CAR+ T cell composition were stimulated overnight with 1 μg/ml of a CAR-specific anti-idiotypic antibody in the presence of 3-(5-amino-2-methyl-4-oxo-4H-quinazolin-3-yl)-piperidine-2,6-dione (Compound B) or (S)-3-[4-(4-morpholin-4-ylmethyl-benzyloxy)-1-oxo-1,3-dihydro-isoindol-2-yl]-piperidine-2,6-dione (Compound A) at concentrations ranging from 10 to 10000 nM or a vehicle control overnight at 37° C., 5% C02. Following overnight incubation, anti-CD19 CAR-expressing T cells were stained with antibodies and analyzed by flow cytometry to assess intracellular levels of Ikaros and Aiolos in CD4+ CAR+ or CD8+ CAR+ cells, as measured by median fluorescence intensity (MFI). Median fluorescence intensity (MFI) values for Ikaros and Aiolos were normalized and calculated as a percentage relative to vehicle control. […] The EC50 for reducing Aiolos and Ikaros expression was calculated as determined from the concentration of the inhibitor that reduced Aiolos or Ikaros MFI to 50% of its maximal MFI in the absence of the inhibitor.
# Aiolos = test: Intracellular Aiolos expression in stimulated anti-CD19 CAR-expressing T cells (flow cytometry MFI)
# Procedure: as §1
# RL cells = test: Rescue of chronically stimulated CAR T cells cultured with RL cells; conditions: Compound B 1 μM, Compound A 0.001, 0.01 or 0.1 μM
# Procedure: The RL cells were further used to assess the ability of immunomodulatory compounds to rescue or reverse the anti-CD19 CAR T cells from exhaustion. Anti-CD19 CAR-expressing T cells were stimulated under conditions to induce chronic stimulation and then were subsequently treated (rescue) with Compound B (1 μM) or Compound A (0.001 μM, 0.01 μM or 0.1 μM), or a vehicle control. Long-term, chronic stimulation was carried out by stimulation of CAR T cells with 30 μg/mL plate-bound anti-idiotypic (anti-ID) antibody for 6 days, substantially as described in Example 3. After the chronic stimulation, the CAR-T cells were cultured with RL cells in the presence of Compound B or Compound A. Cytolytic activity was assessed over time by measuring tumor cell number in the culture.
# RL tumor spheroids = test: RL tumor spheroid model with anti-CD19 CAR T cells; conditions: Day 4; 1 μM Compound B, 0.01 μM or 0.1 μM Compound A
# Procedure: Cytolytic activity was also assessed in a spheroid model. About 5,000 RL cells were plated 48 hours prior to addition of 5,000 anti-CD19 CAR T cells (1:1 E:T ratio). Anti-CD19 CAR T cells were co-cultured with RL tumor spheroids, in the presence of Compound B (1 μM) or Compound A (0.001 μM, 0.01 μM or 0.1 μM)).
# [1] = overnight incubation, 1 μg/ml anti-idiotypic antibody, average of donors (range, 95% confidence interval)
smiles,measurement,setting,value
"Cc1nc2cccc(N)c2c(=O)n1C1CCC(=O)NC1=O (stereo not drawn) [Compound B, 3-(5-amino-2-methyl-4-oxo-4H-quinazolin-3-yl)-piperidine-2,6-dione, reference compound]",intracellular Ikaros expression,"Ikaros; 10 to 10000 nM, overnight",[…]
same,"CAR T cell cytolytic activity, RL cell growth",RL cells,substantially improved
same,sensitivity of RL tumor spheroids to compound,RL tumor spheroids,sensitive
